One molecule from patent publication US9434759B1, “Cationic steroidal antimicrobial compounds and methods of manufacturing such compounds” (BRIGHAM YOUNG UNIVERSITY, priority 2015, dated 2016) can be followed below.

In the assay the test system is Radiation Induced Oral Mucositis. As to the kind of experiment: Syrian Hamster Model Radiation Induced Oral Mucositis Study. The format is in vivo. The following applies: 40 Gy radiation Day 0. As to the method: Various CSA compounds were screened to determine and compare therapeutic effect on oral mucositis. The test was conducted according to a Syrian Hamster Model Radiation Induced Oral Mucositis Study Design as in Table 1. [table] The objective of the study was to identify compounds that can maintain oral mucositis score below 3 in hamster model according to the scoring system in Table 2. [table]

Turning to `CCCCCCCCNC(=O)CC[C@@H](C)[C@H]1CC[C@H]2[C@@H]3[C@H](OCCCN)C[C@@H]4C[C@H](OCCCN)CC[C@]4(C)[C@H]3C[C@H](OCCCN)[C@]12C` [CSA-192], the “reduction in oral mucositis (percent of animal days with mucositis, FIG. 2)” value (topical T.I.D. Day -1 to 28, 300 or 1000 ppm, mucositis evaluated Day 6 to 28) is “greater than 90%”. The “oral mucositis severity scores (FIG. 3)” value (topical T.I.D. Day -1 to 28, score 0-5 every 2 days, Day 6 to 28) was “strongest and longest lasting reduction in oral mucositis”.
